By CC50 is commonly meant the concentration giving 50% cytotoxicity. For orientation: AC50 means the concentration giving half of the maximal activity seen. By EC50 is commonly meant the midpoint of the concentration-response curve.

Experiment [1] in a line: HEp-2 cell cytotoxicity, dose response, cytotoxicity control for RSV inhibitor project, HTS (AID 2410). Conditions: human respiratory syncytial virus. The class given is functional.
In the next experiment the target is Cytochrome P450 2D6 (Homo sapiens, UniProt P10635).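 Also: CYP2D6 member of a cytochrome P450 panel assay.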
Cytochrome P450 2D6, sequence (P10635 whole entry): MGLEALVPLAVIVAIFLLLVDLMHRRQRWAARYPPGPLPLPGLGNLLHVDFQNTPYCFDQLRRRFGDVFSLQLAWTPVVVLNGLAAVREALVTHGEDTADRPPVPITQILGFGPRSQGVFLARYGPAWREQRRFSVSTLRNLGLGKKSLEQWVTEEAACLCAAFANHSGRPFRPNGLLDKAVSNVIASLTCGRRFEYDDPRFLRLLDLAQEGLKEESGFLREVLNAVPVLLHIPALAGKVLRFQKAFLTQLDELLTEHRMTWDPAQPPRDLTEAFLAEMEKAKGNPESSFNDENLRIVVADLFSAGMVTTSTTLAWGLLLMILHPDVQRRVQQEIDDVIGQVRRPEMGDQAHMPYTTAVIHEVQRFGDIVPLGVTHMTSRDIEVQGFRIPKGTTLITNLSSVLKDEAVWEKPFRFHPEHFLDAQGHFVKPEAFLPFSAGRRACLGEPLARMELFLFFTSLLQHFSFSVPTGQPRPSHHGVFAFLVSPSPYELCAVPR
The next experiment addresses Cytochrome P450 2C9 (Homo sapiens, UniProt P11712).
The next experiment addresses Cytochrome P450 3A4 (Homo sapiens, UniProt P08684).
Experiment [2] can be described thus: inhibitors of intracellular T. cruzi replication, confirmation, NIH3T3 host cells, beta-gal luminescence (AID 2044).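 Also: intracellular parasites grown in NIH/3T3 mouse fibroblasts as host cells; luminescent beta-galactosidase reporter signal from transgenic T. cruzi replicating inside host cells; inhibitors lower the luminescence signal.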 The class given is functional, cell-based.
Experiment [3] in a line: cytotoxicity toward NIH3T3 fibroblasts, dose response, counter-screen, cell-based, ATP luminescence, mouse fibroblasts (AID 2010).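 Also: cells exposed to compound for about 90 hours before reading.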 Format: functional. For orientation: A counterscreen serves to expose hits that act by an unwanted route or on another target.
Experiment [4] concerns Streptococcus sp. 'group A'. In words: growth inhibition of control SK(-) GAS strain, dose response, counter-screen for streptokinase expression inhibitor project, luminescence, kanamycin, BacTiterGlo, confirmation (AID 1900). Format: functional, organism-based.
Another experiment concerns Streptococcus. In words: Group A Streptococcus viability loss, dose response, counter-screen for streptokinase expression inhibitor project, luminescence, BacTiterGlo (AID 1915).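 Also: potency for reduction of bacterial viability or growth.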 Format: functional, organism-based.

Active and inactive are the calls of the source.

Cytochrome P450 3A4, sequence (P08684 whole entry): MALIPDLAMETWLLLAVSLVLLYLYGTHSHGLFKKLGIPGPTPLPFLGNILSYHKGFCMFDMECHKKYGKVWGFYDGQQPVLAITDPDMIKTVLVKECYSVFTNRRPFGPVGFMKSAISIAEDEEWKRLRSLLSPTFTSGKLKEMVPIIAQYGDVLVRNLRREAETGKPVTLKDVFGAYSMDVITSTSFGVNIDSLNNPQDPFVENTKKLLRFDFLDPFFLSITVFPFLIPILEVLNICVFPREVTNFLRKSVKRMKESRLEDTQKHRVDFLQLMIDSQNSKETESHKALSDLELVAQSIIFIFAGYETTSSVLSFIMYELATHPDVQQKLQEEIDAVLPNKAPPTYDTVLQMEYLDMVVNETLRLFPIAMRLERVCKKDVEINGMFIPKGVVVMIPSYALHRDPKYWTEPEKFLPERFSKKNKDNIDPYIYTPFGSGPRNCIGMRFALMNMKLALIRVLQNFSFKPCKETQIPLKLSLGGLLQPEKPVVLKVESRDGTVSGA
Cytochrome P450 2C9, sequence (P11712 whole entry): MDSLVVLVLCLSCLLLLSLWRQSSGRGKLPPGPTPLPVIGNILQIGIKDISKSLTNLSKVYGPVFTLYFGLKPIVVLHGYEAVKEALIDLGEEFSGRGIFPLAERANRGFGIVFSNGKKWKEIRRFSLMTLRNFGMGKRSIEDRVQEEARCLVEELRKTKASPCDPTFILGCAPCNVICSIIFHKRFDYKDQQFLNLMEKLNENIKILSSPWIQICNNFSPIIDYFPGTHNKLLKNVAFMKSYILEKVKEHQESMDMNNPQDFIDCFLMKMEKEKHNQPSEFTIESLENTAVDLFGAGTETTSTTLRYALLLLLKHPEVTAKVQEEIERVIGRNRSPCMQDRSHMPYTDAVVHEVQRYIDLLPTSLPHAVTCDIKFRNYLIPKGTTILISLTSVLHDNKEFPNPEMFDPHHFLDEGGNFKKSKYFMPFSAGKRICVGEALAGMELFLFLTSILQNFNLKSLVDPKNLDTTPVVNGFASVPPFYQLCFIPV

Turning to `c1ccc(Nc2nc(-c3ccccc3)nc3ccccc23)cc1`, the CC50 in experiment [1] was 24.8 µM (active).

`CCOC(=O)C1=C2SCC(=O)N2C(N)=C(C#N)C1`: the results for the AC50 on Cytochrome P450 2D6 and at Cytochrome P450 2C9 were 11.2 µM (inconclusive) and 20 µM (inconclusive), respectively.

Turning to `Cn1c(=O)c(-c2ccc(F)cc2)nc2cncnc21`, the AC50 at Cytochrome P450 3A4 is 7.94 µM (inconclusive).

Regarding `S[C@@H]1CCCN(Cc2ccccc2)C1`, the AC50 at Cytochrome P450 3A4 is 3.98 µM (inconclusive).

`CC1CCc2nc(NC(=O)c3ccc(S(=O)(=O)N4CCCc5ccccc54)cc3)sc2C1` (configuration not stated): the results for the EC50 in experiment [2] and in experiment [3] were 1.42 µM (active) and > 60 µM (not active), respectively.

Regarding `CCCC[C@@H]1C[C@H]1C(NC(=O)c1cccnc1)c1ccc(-c2ccccc2)cc1` (some centres not stated), the concentration at half-maximal activity (AC50) at Cytochrome P450 3A4 was 0.794 µM (inconclusive).

As for `CCC(C)c1ccc(NC(=O)c2cccs2)cc1` (configuration not stated), the CC50 in experiment [1] is < 0.1 µM (active).

For the compound `Clc1ccccc1CSc1cc2c(nn1)-c1ccccc1CC2`, the CC50 in experiment [1] was 22.9 µM (active).

As for `COc1ccc2nc(O)c(CNc3cccc(C)c3)cc2c1`, in experiment [1], the CC50 was 6.97 µM (active).

Take `CCC(=O)NC(=S)N1CCN(c2ccc([N+](=O)[O-])cc2Cl)CC1`: at Cytochrome P450 3A4, the AC50 was 28.2 µM (inconclusive).

`COc1cccc(CNC(=O)C2CCN(S(=O)(=O)N3CCCCC3)CC2)c1`: the AC50 on Cytochrome P450 2C9 was 11.2 µM (inconclusive).

In the case of `COCc1ccc(CN2CCCC(CCC(=O)NCc3cccc(OC)c3)C2)o1` (configuration not stated), the EC50 in experiment [2] is 0.914 µM (active); in experiment [3], > 60 µM (not active).

For the compound `O=C(c1ccc(Cl)cc1)N1CCN(c2ccc([N+](=O)[O-])c(NCc3cccnc3)c2)CC1`, the CC50 in experiment [1] was 35.8 µM (active).

As for `COC(=O)CC[C@@H](C)[C@H]1CC[C@H]2[C@H]3CC[C@H]4C[C@@H]5CC[C@@]4(C)C3(O5)[C@@H](Br)[C@@H](Br)[C@@]12C`, the AC50 at Cytochrome P450 3A4 was 3.98 µM (inconclusive).

`O=c1cnc2cnc(N3CCOCC3)nc2n1CCc1ccccc1`: the AC50 on Cytochrome P450 3A4 was 15.8 µM (inconclusive).

As to `O=C(c1cccs1)n1nc(-c2ccc(Cl)cc2)nc1NCc1ccco1`, on Cytochrome P450 2C9, the AC50 is 12.6 µM (inconclusive).

`Cc1ccc(-n2c(SCc3ccc([N+](=O)[O-])cc3)nc3ccccc3c2=O)cc1`: the AC50 on Cytochrome P450 3A4 is 11.2 µM (inconclusive); on Cytochrome P450 2C9 it was 0.0891 µM (inconclusive).

As for `COc1cc(/C=C(/C#N)c2nc3ccccc3[nH]2)ccc1Oc1ncccc1[N+](=O)[O-]`, the AC50 at Cytochrome P450 2D6 is 3.16 µM (inconclusive).

For `CC(C)(C)c1ccc(C(=O)N2CCC(C(=O)NC3CCCCCC3)CC2)cc1`, the CC50 in experiment [1] was 42 µM (active).

Consider `c1ccc2c(N3CCOCC3)nc(-c3ccncc3)nc2c1`, for which the CC50 in experiment [1] is 42.6 µM (active).

For `Cc1cc(C)c(C#N)c(OCC(=O)c2ccc(Br)cc2)n1`, the AC50 at Cytochrome P450 3A4 was 3.55 µM (inconclusive).

Consider `O=C(Cc1sc(Nc2ccccc2)nc1-c1ccccc1)NCc1ccccc1`, for which the CC50 in experiment [1] is 11.2 µM (active).

In the case of `CC1CCc2sc3nc(NCc4ccco4)n4ncnc4c3c2C1` (configuration not stated), the CC50 in experiment [1] was 30.3 µM (active).

Consider `CCCS(=O)(=O)N1CCN(Cc2ccc3c(c2)c2ccccc2n3CC)CC1`, for which the CC50 in experiment [1] is 20.4 µM (active).

In the case of `Cc1ccc(NC2=NC(=O)CS2)cc1`, in experiment [1], the CC50 was 34.3 µM (active).

Consider `O=C(/C=C/c1cccc([N+](=O)[O-])c1)NCCSCc1ccccc1Cl`, for which, in experiment [1], the CC50 is 25.4 µM (active).

On to `Cn1nc([N+](=O)[O-])nc1Oc1ccccc1N`, for which the results for the EC50 in experiment [2] and in experiment [3] were 1.08 µM (active) and > 60 µM (not active), respectively.

For the compound `O=C(NCCN1CCN(C(=O)C(c2ccccc2)c2ccccc2)CC1)C(=O)Nc1ccccc1`, the AC50 at Cytochrome P450 2C9 was 12.6 µM (inconclusive).

In the case of `O=C(Oc1ccccc1)N1CCC2(CCCN(c3ccccn3)C2)CC1`, the AC50 at Cytochrome P450 2D6 was 39.8 µM (inconclusive); on Cytochrome P450 2C9, 5.01 µM (inconclusive).

As to `CC(C)N1CCN(Cc2ccc(-c3ccccc3Cl)o2)CC1CCO` (configuration not stated), the values for the EC50 in experiment [2] and in experiment [3] were 1.61 µM (active) and > 60 µM (inconclusive), respectively.

As for `COc1ccc(CCNc2cc(C)nc3c(-c4ccccc4)cnn23)cc1OC`, the CC50 in experiment [1] was 43.2 µM (active).

Regarding `CC(C)NC(=O)c1sc2nc3c(c(-c4cccs4)c2c1N)CN(C)CC3`, the EC50 in experiment [2] is 0.856 µM (active); in experiment [3] it was > 60 µM (inconclusive).

Regarding `O=C(NCc1cccnc1)c1c(O)c2cccc3c2n(c1=O)CCC3`, the CC50 in experiment [1] was 22.8 µM (active).

Turning to `CO[C@H]1COC(=O)C/C=C\[C@@H](C)COC(=O)[C@@H](OCc2ccccc2)/C=C\[C@@H]1C`, the AC50 on Cytochrome P450 3A4 was 3.98 µM (inconclusive).

With `Cc1ccc(NC(=O)CC2CS(=O)(=O)CC2CC(=O)Nc2ccc(C)c(C)c2)cc1C` (configuration not stated), the AC50 on Cytochrome P450 2C9 was 2.82 µM (inconclusive).

For `Cc1cc(NC(=S)Nc2ccccc2)ccc1Br`, the AC50 at Cytochrome P450 2C9 is 11.2 µM (inconclusive).

As for `Cc1nc(N2CCOCC2)nc(N2CCN(c3ccccc3)CC2)c1[N+](=O)[O-]`, at Cytochrome P450 3A4, the half-maximal activity concentration (AC50) was 3.55 µM (inconclusive).

For `COc1ccc(CCN(C)CC(=O)Nc2c(C)cc(C)cc2C)cc1OC`, the EC50 is 0.592 µM (active) in experiment [2] and > 60 µM (not active) in experiment [3].

Turning to `FC(F)(F)c1ccccc1-c1nccc(NCc2ccccc2)n1`, the AC50 at Cytochrome P450 2D6 is 25.1 µM (inconclusive); on Cytochrome P450 3A4 it was 31.6 µM (inconclusive); at Cytochrome P450 2C9 it was 1 µM (inconclusive).

Regarding `CC(=O)N1CCC2(CCCN(c3cccc(-c4ccccc4)c3)C2)CC1`, the AC50 is 39.8 µM (inconclusive) on Cytochrome P450 2D6 and 7.94 µM (inconclusive) at Cytochrome P450 3A4.

As for `O=C1Nc2ccccc2CCC1Sc1nnc(-c2ccc(Cl)cc2)s1` (configuration not stated), the CC50 in experiment [1] was 3.7 µM (active).

Consider `COc1ccc(C(=O)C2CCCN(Cc3cnc(N4CCCC4)s3)C2)cc1OC` (configuration not stated), for which the EC50 in experiment [2] is 0.26 µM (active); in experiment [3] it was > 30 µM (not active).

Consider `NC(=O)C1CCN(C(=O)C(=O)c2cn(CC(=O)N3CCCCCC3)c3ccccc23)CC1`, for which the EC50 in experiment [2] was 1.32 µM (active); in experiment [3], > 60 µM (not active).

Take `Cc1ccc(CN(Cc2cccnc2)C(S)=Nc2cc(Cl)ccc2C)cc1`: the EC50 in experiment [2] was 1.61 µM (active); in experiment [3] it was > 60 µM (not active).

Turning to `Cc1ccc(/C=C/C2=Cc3c(sc(NC(=O)CSc4nnc(N)[nH]4)c3C#N)C(C)(C)C2)o1`, the AC50 at Cytochrome P450 2D6 was 22.4 µM (inconclusive).

With `CCCN(CC#CC(O)(c1ccccc1)c1cccnc1)CCC` (configuration not stated), the EC50 in experiment [2] is 0.463 µM (active); in experiment [3] it was > 60 µM (not active).

Take `CO[C@@H]1/C=C\O[C@@]2(C)Oc3c(C)c(O)c4c(c3C2=O)/C(=N/[C@H]2CC[C@H](O)O[C@@H]2C)C=C(NC(=O)/C(C)=C\C(=O)[C@@H]2C[C@@H]2[C@@H](O)[C@H](C)[C@@H](O)[C@H](C)[C@H](OC(C)=O)[C@@H]1C)C4=O`: the AC50 at Cytochrome P450 2D6 is 3.16 µM (inconclusive); on Cytochrome P450 2C9 it was 3.98 µM (inconclusive).

Turning to `c1cncc(-c2ccc3ncnc(NCCN4CCOCC4)c3c2)c1`, on Cytochrome P450 2D6, the AC50 was 39.8 µM (inconclusive).

Take `COCCn1c(=O)c(-c2ccc(F)cc2)nc2cncnc21`: at Cytochrome P450 3A4, the AC50 is 12.6 µM (inconclusive).

`CCOC(=O)c1cc2sc(C)cc2n1CCCN1C(=O)c2ccccc2C1=O`: the AC50 on Cytochrome P450 2D6 is 15.8 µM (inconclusive).

In the case of `Cc1ccc(S(=O)(=O)N2CCC(=O)N(C(COCc3ccc(Cl)cc3Cl)Cc3ccccc3)CC2)cc1` (configuration not stated), the EC50 in experiment [2] is 1.58 µM (active); in experiment [3] it was 34.1 µM (active).

`C[C@@H]1CC[C@H]2C(=O)NC[C@@H](O)CN2[C@@H]1c1ccc(Br)cc1`: the results for the AC50 on Cytochrome P450 2D6, on Cytochrome P450 3A4 and at Cytochrome P450 2C9 were 3.16 µM (inconclusive), 3.98 µM (inconclusive) and 5.01 µM (inconclusive), respectively.

Turning to `CCOC(=O)c1oc2ccc(CNC3CCCCC3)c(Cl)c2c1C`, the EC50 was 1.73 µM (active) in experiment [2] and > 60 µM (not active) in experiment [3].

With `Cc1ccc2ccc(S(=O)(=O)NCc3ccco3)cc2c1`, the CC50 in experiment [1] is 29.2 µM (active).

Regarding `Cc1nc(N)sc1-c1csc(Nc2cccc(O)c2)n1`, the CC50 in experiment [1] was 48.4 µM (active).

With `O=C1CC(N2CCN(CCc3ccccn3)CC2)C(=O)N1c1ccc(Cl)cc1` (configuration not stated), on Cytochrome P450 2D6, the concentration at half-maximal activity (AC50) was 12.6 µM (inconclusive).

As to `Cc1ccc2occ(/C=N/NC(N)=S)c(=O)c2c1`, the CC50 in experiment [1] was > 50 µM (active).

As to `Cc1ccc([N+](=O)[O-])cc1/N=C(/c1cccc([N+](=O)[O-])c1)N1CCOCC1`, the figures for the AC50 at Cytochrome P450 3A4 and at Cytochrome P450 2C9 were 20 µM (inconclusive) and 25.1 µM (inconclusive), respectively.

On to `COc1ccccc1CNc1ncnc2ccc(-c3ccccc3C#N)cc12`, for which the half-maximal activity concentration (AC50) is 3.16 µM (inconclusive) on Cytochrome P450 2D6 and 0.631 µM (inconclusive) on Cytochrome P450 2C9.

Regarding `CCCCOC(=O)c1ccc(O)cc1` [BUTYLPARABEN], the AC50 at Cytochrome P450 2D6 is 12.6 µM (inconclusive).

`Cc1sc2ccccc2c1CC1=NCCN1` [METIZOLINE]: the AC50 at Cytochrome P450 2D6 was 31.6 µM (inconclusive).

As for `C[C@H]1[C@H](C)CC[C@]2(C(=O)O)CC[C@]3(C)C(=CC[C@@H]4[C@@]5(C)CC[C@H](O)C(C)(C)[C@@H]5CC[C@]43C)[C@H]12` [URSOLIC ACID], in experiment [1], the CC50 is 28.4 µM (active). Moreover, the EC50 in experiment [4] was 0.949 µM (active); in the experiment on Streptococcus, 0.88 µM (active).
